Among the test systems are MCF7 breast; NCI-H226 lung; IGROV1 ovarian; CAKI-1 renal; OVCAR-3 ovarian; HCC-2998 colon; EKVX NSCLC; UACC-257 melanoma; NCI-H522 lung; SNB-75 CNS.
Common to all, as to assay: NCI-60 cell line screen, 48 h

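Assay format: 96-well plates, 48-hour exposure. Definition used: TGI = concentration required for complete inhibition of growth.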

For `O=c1[nH]nc(Cc2ccc(Cl)cc2)n1O`, the TGI with MCF7 breast, in the assay on NCI-H226 lung, in the assay on IGROV1 ovarian, in the assay with CAKI-1 renal, with OVCAR-3 ovarian and in the assay with HCC-2998 colon was greater than 100 µM each time. The TGI in the assay with EKVX NSCLC, in the assay on UACC-257 melanoma and with NCI-H522 lung was greater than 100 µM each time.
In the case of `COc1ccc(-c2c(C#N)c(-c3ccccc3)n(NS(=O)(=O)c3ccccc3)c(=O)c2C#N)cc1`, the TGI with MCF7 breast, in the assay on NCI-H226 lung, in the assay on SNB-75 CNS, with IGROV1 ovarian, in the assay with CAKI-1 renal and in the assay on HCC-2998 colon was greater than 100 µM each time. Besides, the TGI with EKVX NSCLC was greater than 100 µM; in the assay on UACC-257 melanoma it was greater than 100 µM; in the assay with NCI-H522 lung, 73.7 µM.
For `CCOP(=O)(OCC)C(Nc1ccc(F)cc1)c1cccc([N+](=O)[O-])c1` (stereo not given), the TGI in the assay with MCF7 breast, with NCI-H226 lung, in the assay with SNB-75 CNS, with IGROV1 ovarian, in the assay on CAKI-1 renal and in the assay with OVCAR-3 ovarian was greater than 100 µM each time. Further, the TGI in the assay with HCC-2998 colon, with EKVX NSCLC, in the assay with UACC-257 melanoma and with NCI-H522 lung was greater than 100 µM in each case.
For `CC#CC(O)(C(=O)OC1CCCN(C)C1)C1=CC=CCC1` (stereo not given), the TGI with MCF7 breast, with NCI-H226 lung, with SNB-75 CNS, in the assay on IGROV1 ovarian, in the assay on CAKI-1 renal and with OVCAR-3 ovarian was greater than 100 µM in each case. The TGI in the assay on HCC-2998 colon, in the assay on EKVX NSCLC, with UACC-257 melanoma and in the assay with NCI-H522 lung was greater than 100 µM throughout.
On to `CCOC(=O)C1=C(C)NC(=S)NC1c1cccc(O)c1` (stereo not given), for which the TGI with MCF7 breast was greater than 100 µM; in the assay with NCI-H226 lung, greater than 100 µM; in the assay with SNB-75 CNS, greater than 95.4 µM; in the assay with IGROV1 ovarian, greater than 100 µM; with CAKI-1 renal, greater than 100 µM; in the assay with OVCAR-3 ovarian, greater than 100 µM. In addition, the TGI in the assay with HCC-2998 colon is greater than 90.4 µM; in the assay on EKVX NSCLC, greater than 100 µM; in the assay on UACC-257 melanoma, greater than 100 µM; in the assay on NCI-H522 lung, 93.9 µM.
For the compound `CSC(=NC1=NC(C(F)(F)F)(C(F)(F)F)N=C(c2ccccc2)O1)SC`, the TGI in the assay with MCF7 breast amounted to 60.5 µM; in the assay on NCI-H226 lung, 83.9 µM; in the assay with SNB-75 CNS, 18.9 µM; in the assay with CAKI-1 renal it was 44.8 µM; in the assay on OVCAR-3 ovarian, 63.9 µM; with HCC-2998 colon, 39.6 µM. Besides, the TGI in the assay on EKVX NSCLC came to 42.3 µM; with UACC-257 melanoma it was 60.5 µM; in the assay with NCI-H522 lung it was 25 µM.
Turning to `CN(C(=O)c1ccc(Cl)s1)C(=S)N(C)C(=O)c1ccc(Cl)s1`, the TGI in the assay on MCF7 breast, with NCI-H226 lung, in the assay with SNB-75 CNS, in the assay on IGROV1 ovarian, in the assay with CAKI-1 renal and in the assay with OVCAR-3 ovarian was greater than 10 µM each time. In addition, the TGI in the assay on HCC-2998 colon, in the assay on EKVX NSCLC, in the assay with UACC-257 melanoma and in the assay with NCI-H522 lung was greater than 10 µM in each case.
Turning to `N#CCCN(CCCN(C(=O)Nc1ccccc1)c1ccccc1)C(=O)Nc1ccccc1`, the TGI with MCF7 breast was greater than 100 µM; in the assay with NCI-H226 lung, greater than 100 µM; in the assay with SNB-75 CNS, greater than 100 µM; in the assay on IGROV1 ovarian, greater than 100 µM; in the assay on CAKI-1 renal, 28.6 µM; with OVCAR-3 ovarian, greater than 100 µM. The TGI in the assay with HCC-2998 colon, with EKVX NSCLC, in the assay with UACC-257 melanoma and with NCI-H522 lung was greater than 100 µM each time.
Regarding `CCCCN(c1ccccc1)c1ncnc2c1cnn2C`, the TGI in the assay with MCF7 breast was greater than 100 µM; in the assay with NCI-H226 lung, greater than 100 µM; in the assay with SNB-75 CNS, 55.9 µM; in the assay on IGROV1 ovarian, greater than 100 µM; in the assay on CAKI-1 renal, greater than 100 µM; in the assay on OVCAR-3 ovarian, greater than 100 µM. In addition, the TGI was greater than 100 µM in the assay with HCC-2998 colon, greater than 100 µM in the assay with EKVX NSCLC, 95.8 µM in the assay on UACC-257 melanoma and 53.6 µM in the assay on NCI-H522 lung.
Consider `O=C1c2ccccc2CC12Cc1ccc3c(c1C2)CCC3` (stereo not given), for which the TGI with MCF7 breast is 39.6 µM; in the assay on NCI-H226 lung it was 64.7 µM; with SNB-75 CNS, 97.9 µM; in the assay on IGROV1 ovarian, greater than 100 µM; in the assay on CAKI-1 renal, greater than 100 µM; with OVCAR-3 ovarian it was 41.7 µM. In addition, the TGI in the assay on HCC-2998 colon came to 54.7 µM; with EKVX NSCLC it was 47.7 µM; in the assay with UACC-257 melanoma, 30.2 µM; with NCI-H522 lung it was 25.2 µM.
As to `Cc1ccc2c(c1)OC1Nc3ccccc3C1=C2O` (stereo not given), the TGI in the assay on MCF7 breast is 45.9 µM; in the assay on NCI-H226 lung, 89.1 µM; with SNB-75 CNS it was greater than 100 µM; in the assay on IGROV1 ovarian, greater than 100 µM; in the assay on CAKI-1 renal, 97.5 µM; in the assay on OVCAR-3 ovarian, 21.1 µM. In addition, the TGI is 33.9 µM in the assay on HCC-2998 colon, 86.9 µM with EKVX NSCLC, 69.3 µM in the assay with UACC-257 melanoma and greater than 100 µM with NCI-H522 lung.
For `N#Cc1c2c(c(N3CCOCC3)n3c1nc1ccccc13)CCCC2`, the TGI in the assay on MCF7 breast was found to be 87.1 µM; in the assay with NCI-H226 lung it was 32.5 µM; in the assay on IGROV1 ovarian, 34.9 µM; in the assay with CAKI-1 renal, 37.9 µM; in the assay with OVCAR-3 ovarian, 36.5 µM; in the assay on HCC-2998 colon it was 40.9 µM. Also, the figures for the TGI in the assay on EKVX NSCLC, in the assay on UACC-257 melanoma and in the assay on NCI-H522 lung were 35.9 µM, 65.9 µM and 30.1 µM, respectively.
Turning to `O=C(Nc1cccc(-c2cn3ccccc3n2)c1)c1ccncc1`, the TGI with MCF7 breast, with NCI-H226 lung, in the assay with SNB-75 CNS, in the assay on IGROV1 ovarian, with CAKI-1 renal and in the assay with OVCAR-3 ovarian was greater than 100 µM in each case. Further, the TGI in the assay on HCC-2998 colon is greater than 100 µM; in the assay with EKVX NSCLC it was greater than 100 µM; in the assay on UACC-257 melanoma, 73.5 µM; in the assay with NCI-H522 lung, 72.4 µM.
On to `Cc1ccc(S(=O)(=O)N2CCN(CCN(C)CCN3CCN(S(=O)(=O)c4ccc(C)cc4)CC3)CC2)cc1`, for which the TGI came to 32.8 µM in the assay with MCF7 breast; 79.7 µM in the assay on NCI-H226 lung; 33.6 µM with IGROV1 ovarian; 40.5 µM with CAKI-1 renal; 31.1 µM in the assay on OVCAR-3 ovarian; 29.4 µM in the assay on HCC-2998 colon. Besides, the TGI in the assay on EKVX NSCLC was found to be 55.2 µM; in the assay on UACC-257 melanoma it was 30.5 µM; in the assay with NCI-H522 lung, 38.9 µM.
